Values after ≈ are worked out from the molar mass of the structure shown. A value given as a limit tells only on which side of the number the result lay.

A word on the MIC: it is the least concentration at which growth counts as inhibited.

The test system of the first test is M. tuberculosis H37Rv. Kind of test: MIC vs. M. tuberculosis H37Rv, microplate Alamar Blue assay (MABA). The format is cell-based. The note with it: Table 1a, 11,12-carbamate derivatives; anti-TB activity; read-out: MIC. On the technique in general: Alamar Blue is a resazurin reagent that responds to reducing activity.
For the molecule `CC[C@H]1OC(=O)[C@H](C)C(=O)[C@H](C)[C@@H](O[C@@H]2O[C@H](C)C[C@H](N(C)C)[C@H]2O)[C@](C)(OC)C[C@@H](C)C(=O)[C@H](C)[C@H]2N(CCCCn3ccnc3)C(=O)O[C@]12C` [RU61205], the minimal inhibitory concentration (MIC) is recorded as 112 µM (≈ 82.3 µg/mL).

The same test, now with this note: Table 3; parallel-synthesis carbazate library products, SPE purified; read-out: MIC.
As for `CC[C@H]1OC(=O)[C@H](C)[C@@H](O[C@H]2CC(C)(OC)[C@@H](O)[C@H](C)O2)[C@H](C)[C@@H](O[C@@H]2O[C@H](C)C[C@H](N(C)C)[C@H]2O)[C@](C)(OC)C[C@@H](C)C(=O)[C@H](C)[C@H]2N(NC/C=C/c3cc(OC)c(O)c(OC)c3)C(=O)O[C@]12C` (stereo partly shown) [A6′], the MIC is on record as 10.2 µM (≈ 10 µg/mL).
For the molecule `CC[C@H]1OC(=O)[C@H](C)[C@@H](O[C@H]2CC(C)(OC)[C@@H](O)[C@H](C)O2)[C@H](C)[C@@H](O[C@@H]2O[C@H](C)C[C@H](N(C)C)[C@H]2O)[C@](C)(OC)C[C@@H](C)C(=O)[C@H](C)[C@H]2N(NCc3cnn(-c4ccc(F)cc4)c3C)C(=O)O[C@]12C` (stereo partly shown) [D7′], the MIC is given as 13 µM (≈ 12.7 µg/mL).
Still for that read-out and setting: in the case of `CC[C@H]1OC(=O)[C@H](C)[C@@H](O[C@H]2CC(C)(OC)[C@@H](O)[C@H](C)O2)[C@H](C)[C@@H](O[C@@H]2O[C@H](C)C[C@H](N(C)C)[C@H]2O)[C@](C)(OC)C[C@@H](C)C(=O)[C@H](C)[C@H]2N(NCc3cccnc3NC(=O)C(C)(C)C)C(=O)O[C@]12C` (stereo partly shown) [E4′] it was above 27 µM; in that of `CC[C@H]1OC(=O)[C@H](C)[C@@H](O[C@H]2CC(C)(OC)[C@@H](O)[C@H](C)O2)[C@H](C)[C@@H](O[C@@H]2O[C@H](C)C[C@H](N(C)C)[C@H]2O)[C@](C)(OC)C[C@@H](C)C(=O)[C@H](C)[C@H]2N(/N=C/c3cnc(-c4ccccc4)nc3C)C(=O)O[C@]12C` (stereo partly shown) [E6′], 5 µM (≈ 4.84 µg/mL); in that of `CC[C@H]1OC(=O)[C@H](C)[C@@H](O[C@H]2CC(C)(OC)[C@@H](O)[C@H](C)O2)[C@H](C)[C@@H](O[C@@H]2O[C@H](C)C[C@H](N(C)C)[C@H]2O)[C@](C)(OC)C[C@@H](C)C(=O)[C@H](C)[C@H]2N(NCc3ccnc4ccccc34)C(=O)O[C@]12C` (stereo partly shown) [D11′], 16 µM (≈ 14.9 µg/mL).
As for `CC[C@H]1OC(=O)[C@H](C)[C@@H](O[C@H]2CC(C)(OC)[C@@H](O)[C@H](C)O2)[C@H](C)[C@@H](O[C@@H]2O[C@H](C)C[C@H](N(C)C)[C@H]2O)[C@](C)(OC)C[C@@H](C)C(=O)[C@H](C)[C@H]2N(NCc3cccn3-c3ccc(C(F)(F)F)cc3)C(=O)O[C@]12C` (stereo partly shown) [F1′], the MIC came to 17.6 µM (≈ 17.8 µg/mL).
Turning to `CC[C@H]1OC(=O)[C@H](C)[C@@H](O[C@H]2CC(C)(OC)[C@@H](O)[C@H](C)O2)[C@H](C)[C@@H](O[C@@H]2O[C@H](C)C[C@H](N(C)C)[C@H]2O)[C@](C)(OC)C[C@@H](C)C(=O)[C@H](C)[C@H]2N(NCc3cc(Br)cs3)C(=O)O[C@]12C` (stereo partly shown) [F11′], the minimum inhibitory concentration (MIC) turned out to be 12.7 µM (≈ 12.2 µg/mL).
Same read-out and setting: in the case of `CCOC(=O)c1cc(-c2ccc(Cl)cc2)oc1CNN1C(=O)O[C@]2(C)[C@@H](CC)OC(=O)[C@H](C)[C@@H](O[C@H]3CC(C)(OC)[C@@H](O)[C@H](C)O3)[C@H](C)[C@@H](O[C@@H]3O[C@H](C)C[C@H](N(C)C)[C@H]3O)[C@](C)(OC)C[C@@H](C)C(=O)[C@H](C)[C@@H]12` (stereo partly shown) [B1′] it was above 18 µM.
Regarding `CC[C@H]1OC(=O)[C@H](C)[C@@H](O[C@H]2CC(C)(OC)[C@@H](O)[C@H](C)O2)[C@H](C)[C@@H](O[C@@H]2O[C@H](C)C[C@H](N(C)C)[C@H]2O)[C@](C)(OC)C[C@@H](C)C(=O)[C@H](C)[C@H]2N(NCc3cc(C(=O)OC)c(C)o3)C(=O)O[C@]12C` (stereo partly shown) [A12′], the MIC was above 12 µM.
Turning to `CC[C@H]1OC(=O)[C@H](C)[C@@H](O[C@H]2CC(C)(OC)[C@@H](O)[C@H](C)O2)[C@H](C)[C@@H](O[C@@H]2O[C@H](C)C[C@H](N(C)C)[C@H]2O)[C@](C)(OC)C[C@@H](C)C(=O)[C@H](C)[C@H]2N(NCc3cc4ccccc4s3)C(=O)O[C@]12C` (stereo partly shown) [G2′], the minimal inhibitory concentration (MIC) worked out at 11 µM (≈ 10.3 µg/mL).
Same read-out and setting: in the case of `CC[C@H]1OC(=O)[C@H](C)[C@@H](O[C@H]2CC(C)(OC)[C@@H](O)[C@H](C)O2)[C@H](C)[C@@H](O[C@@H]2O[C@H](C)C[C@H](N(C)C)[C@H]2O)[C@](C)(OC)C[C@@H](C)C(=O)[C@H](C)[C@H]2N(NCc3csc(-c4ccccc4)n3)C(=O)O[C@]12C` (stereo partly shown) [F9′] it was 12.6 µM (≈ 12.1 µg/mL).
As for `CC[C@H]1OC(=O)[C@H](C)[C@@H](O[C@H]2CC(C)(OC)[C@@H](O)[C@H](C)O2)[C@H](C)[C@@H](O[C@@H]2O[C@H](C)C[C@H](N(C)C)[C@H]2O)[C@](C)(OC)C[C@@H](C)C(=O)[C@H](C)[C@H]2N(NCc3cncn3C)C(=O)O[C@]12C` (stereo partly shown) [B5′], the MIC is above 27 µM.

Staying with this test, now noted: Table 4; read-out: MIC.
Regarding `CCC1OC(=O)C(C)C(OC2CC(C)(OC)C(O)C(C)O2)C(C)C(OC2OC(C)CC(N(C)C)C2O)C(C)(OC)CC(C)C(=NOC2CCCN(C(=O)OCc3ccccc3)C2)C(C)C(O)C1(C)O` (stereo not shown) [ITR0011], the minimal inhibitory concentration (MIC) is recorded as 6.0 µM (≈ 5.88 µg/mL).

Staying with this test, now noted: Table 5; read-out: MIC.
For the molecule `CCC1OC(=O)C(C)C(OC2CC(C)(OC)C(O)C(C)O2)C(C)C(OC2OC(C)CC(N(C)C)C2OC(=S)Nc2ccccc2)C(C)(OC)CC(C)C(=O)C(C)C(O)C1(C)O` (stereo not shown) [Compound 3ZZ61b], the MIC was found to be 7.3 µM (≈ 6.45 µg/mL).
Take `CCCCCCNC(=O)OC1C(OC2C(C)C(OC3CC(C)(OC)C(O)C(C)O3)C(C)C(=O)OC(CC)C(C)(O)C(O)C(C)C(=O)C(C)CC2(C)OC)OC(C)CC1N(C)C` (stereo not shown) [Compound 1SH88]: the MIC was 15 µM (≈ 13.1 µg/mL).
For `CCC1OC(=O)C(C)C(OC2CC(C)(OC)C(O)C(C)O2)C(C)C(OC2OC(C)CC(N(C)C)C2O)C(C)(O)CC(C)C(=NN=Cc2ccc(C(F)(F)F)cc2)C(C)C(O)C1(C)O` (stereo not shown) [Compound 1OK95], the MIC stood at 27 µM (≈ 24.4 µg/mL).
The same measure, in the same setting: in the case of `CCC1OC(=O)C(C)C(OCc2ccccc2)C(C)C(OC2OC(C)CC([N+](C)(C)Cc3ccccc3)C2OCc2ccccc2)C(C)(OC)CC(C)C(=NOCc2ccccc2)C(C)C(O)C1(C)O` (stereo not shown) [Compound 2GY12] it was 6.3 µM; in that of `CCC1OC(=O)C(C)C(OC2CC(C)(OC)C(O)C(C)O2)C(C)C(OC2OC(C)CC(N(C)C)C2O)C(C)(O)CC(C)C(=NNC2CCCCC2)C(C)C(O)C1(C)O` (stereo not shown) [Compound 1OK107], 3.9 µM (≈ 3.24 µg/mL).
With `CCC1OC(=O)C(C)C(OC2CC(C)(OC)C(O)C(C)O2)C(C)C(OC2OC(C)CC(N(C)C)C2O)C(C)(O)CC(C)C(=NN=Cc2cccc(OC(F)(F)F)c2)C(C)C(O)C1(C)O` (stereo not shown) [Compound 1OK109], the minimum inhibitory concentration (MIC) is listed as 11 µM (≈ 10.1 µg/mL).
Consider `CCC1OC(=O)C(C)C(O)C(C)C(OC2OC(C)CC(N(C)C)C2O)C(C)(OC)CC(C)C(=NOCCC2CCCCC2)C(C)C(O)C1(C)O` (stereo not shown) [Compound 2GY5], for which the MIC was found to be 3.1 µM (≈ 2.22 µg/mL).
With `CCC1OC(=O)C(C)C(OC2CC(C)(OC)C(OC(C)=O)C(C)O2)C(C)C(OC2OC(C)CC(N(C)C)C2OC(C)=O)C(C)(OC)CC(C)C(=O)C(C)C2N(NCCCc3ccnc4ccccc34)C(=O)OC12C` (stereo not shown) [ITR0005], the MIC turned out to be 7.7 µM (≈ 8.02 µg/mL).
For the molecule `CCC1OC(=O)C(C)C(OC2CC(C)(OC)C(O)C(C)O2)C(C)C(OC2OC(C)CC(N(C)C)C2O)C(C)(O)CC(C)C(=NNCc2ccc(C(F)(F)F)cc2)C(C)C(O)C1(C)O` (stereo not shown) [Compound 1OK133], the MIC was determined as 25 µM (≈ 22.7 µg/mL).
As to `CCC1OC(=O)C(C)C(OC2CC(C)(OC)C(O)C(C)O2)C(C)C(OC2OC(C)CC(N(C)C)C2O)C(C)(O)CC(C)C(=NN=Cc2cccc(C(F)(F)F)c2)C(C)C(O)C1(C)O` (stereo not shown) [Compound 1OK119], the minimum inhibitory concentration (MIC) came to 16 µM (≈ 14.5 µg/mL).
The same measure, in the same setting: in the case of `CC[C@H]1OC(=O)[C@H](C)[C@@H](O)[C@H](C)[C@@H](O[C@@H]2O[C@H](C)C[C@H](N(C)C)[C@H]2O)[C@](C)(OC)C[C@@H](C)C(=NOCCc2ccccc2)[C@H](C)[C@@H](O)[C@]1(C)O` [Compound 2GY7] it was 16 µM (≈ 11.3 µg/mL).
